Read-outs that look alike come from different tables or passages of the source.
Test system: T-47D cells
Assay: Caspase cascade activation / induction of apoptosis in T-47D cells (fluorogenic N-(Ac-DEVD)-N'-ethoxycarbonyl-R110 substrate)
Assay type: cell-based, human
Details: Homo sapiens, T47D
[1] = T-47D, 48 hr, read-out: T-47D (48 hr) EC50
[2] = T-47D, 24 hr, read-out: T-47D (24 hr) EC50
[3] = 24 h, read-out: T-47D (24 hr) EC50 (nM)

EC50 [1] [nM] | EC50 [2] [nM] | Structure (SMILES) | EC50 [3] [nM]
13 | – | COc1ccc(N(C)c2nc(Cl)nc3ccc(Cl)cc23)cc1 [Example 60, (2,6-Dichloro-quinazolin-4-yl)-(4-methoxy-phenyl)-methyl-amine] | –
4050 | – | COc1ccc(N(C)c2nc(N(C)c3ccc(OC)cc3)c3cc(Cl)ccc3n2)cc1 [Example 61, 6-Chloro-N^2,N^4-bis-(4-methoxy-phenyl)-N^2,N^4-dimethyl-quinazoline-2,4-diamine] | –
316 | – | COc1ccc(N(C)c2nc(Cl)nc3cc(Cl)ccc23)cc1 [Example 62, (2,7-Dichloro-quinazolin-4-yl)-(4-methoxy-phenyl)-methyl-amine] | –
427 | – | COc1ccc(N(C)c2nc(N(C)c3ccc(OC)cc3)c3c(Cl)cccc3n2)cc1 [Example 63, 5-Chloro-N^2,N^4-bis-(4-methoxy-phenyl)-N^2,N^4-dimethyl-quinazoline-2,4-diamine] | –
> 10000 | – | COc1ccc(N(C)c2nc(OC(C)C)nc3cccc(Cl)c23)cc1 [Example 64, (5-Chloro-2-isopropoxy-quinazolin-4-yl)-(4-methoxy-phenyl)-methyl-amine] | –
22 | 18 | COc1ccc(N(C)c2ccnc3ccccc23)cc1 [Example 66, (4-Methoxy-phenyl)-methyl-(quinolin-4-yl)-amine] | –
38 | – | CN(c1ccc2c(c1)OCO2)c1nc(Cl)nc2ccccc12 [Example 67, (2-Chloro-quinazolin-4-yl)-(3,4-methylenedioxyphenyl)-methyl-amine] | –
4 | – | COc1ccc(N(C)c2nc(Cl)nc3ccccc23)cc1OC [Example 68, (2-Chloro-quinazolin-4-yl)-(3,4-dimethoxy-phenyl)-methyl-amine] | –
> 1000 | – | CN(c1ccc(Oc2ccccc2)cc1)c1nc(Cl)nc2ccccc12 [Example 69, (2-Chloro-quinazolin-4-yl)-(4-phenoxy-phenyl)-methyl-amine] | –
42 | – | CCCOc1ccc(N(C)c2nc(Cl)nc3ccccc23)cc1 [Example 70, (2-Chloro-quinazolin-4-yl)-(4-propoxy-phenyl)-methyl-amine] | –
2260 | – | COc1ccc(Oc2ncnc3ccccc23)cc1 [Example 71, 4-(4-Methoxy-phenoxy)-quinazoline] | –
543 | 679 | COc1ccc(N(C)c2nc(CCl)nc3ccccc23)cc1 [Example 73, (2-Chloromethyl-quinazolin-4-yl)-(4-methoxy-phenyl)-methyl-amine] | –
8 | 7 | COc1ccc(N(C)c2nc(CO)nc3ccccc23)cc1 [Example 76] | –
2110 | 700 | COc1ccc(N(C)c2nc(CN(C)C)nc3ccccc23)cc1 [Example 77, (2-Dimethylaminomethyl-quinazolin-4-yl)-(4-methoxy-phenyl)-methyl-amine] | –
– | > 10000 | Cc1nc(Nc2ccc(OC(F)F)cc2)c2ccccc2n1 [Example 78, (4-Difluoromethoxy-phenyl)-(2-methyl-quinazolin-4-yl)-amine] | –
– | > 10000 | COc1ccc(Nc2nc(C)nc3ccccc23)cc1F [Example 79, (3-Fluoro-4-methoxy-phenyl)-(2-methyl-quinazolin-4-yl)-amine] | –
– | 5750 | Cc1nc(Nc2ccc(OC(C)C)cc2)c2ccccc2n1 [Example 80, (4-Isopropoxy-phenyl)-(2-methyl-quinazolin-4-yl)-amine] | –
– | > 10000 | CCc1ccc(Nc2nc(C)nc3ccccc23)cc1 [Example 81, (4-Ethyl-phenyl)-(2-methyl-quinazolin-4-yl)-amine] | –
– | > 10000 | COc1cc(OC)c(Nc2nc(C)nc3ccccc23)c(OC)c1 [Example 82, (2-Methyl-quinazolin-4-yl)-(2,4,6-trimethoxy-phenyl)-amine] | –
168 | – | COc1ccc(N(C)c2nc(-c3ccccc3)nc3ccccc23)cc1 [Example 83, (4-Methoxy-phenyl)-(2-phenyl-quinazolin-4-yl)-methyl-amine] | –
– | 8 | Cc1nc(N(C)c2ccc(OC(F)F)cc2)c2ccccc2n1 [Example 84, (4-Difluoromethoxy-phenyl)-(2-methyl-quinazolin-4-yl)-methyl-amine] | –
– | 2 | COc1ccc(N(C)c2nc(C)nc3ccccc23)cc1F [Example 85, (3-Fluoro-4-methoxy-phenyl)-(2-methyl-quinazolin-4-yl)-methyl-amine] | –
– | 41 | Cc1nc(N(C)c2ccc(OC(C)C)cc2)c2ccccc2n1 [Example 86, (4-Isopropoxy-phenyl)-(2-methyl-quinazolin-4-yl)-methyl-amine] | –
– | 25 | CCc1ccc(N(C)c2nc(C)nc3ccccc23)cc1 [Example 87, (4-Ethyl-phenyl)-(2-methyl-quinazolin-4-yl)-methyl-amine] | –
– | 556 | COc1cc(OC)c(N(C)c2nc(C)nc3ccccc23)c(OC)c1 [Example 88, (2-Methyl-quinazolin-4-yl)-(2,4,6-trimethoxy-phenyl)-methyl-amine] | –
24 | – | COc1ccc(N(C)c2nc(Cl)nc3c(Cl)cccc23)cc1 [Example 89, (2,8-Dichloro-quinazolin-4-yl)-(4-methoxy-phenyl)-methyl-amine] | –

EC50 [1] [nM] | EC50 [2] [nM] | Structure (SMILES) | EC50 [3] [nM]
– | 2 | COc1ccc(N(C)c2nc(Cl)nc3cccc(Cl)c23)cc1 [Example 90, (2,5-Dichloro-quinazolin-4-yl)-(4-methoxy-phenyl)-methyl-amine] | –
– | 4 | COc1ccc(N(C)c2nc(C)nc3cccc(OC)c23)cc1 [Example 91, (5-Methoxy-2-methyl-quinazolin-4-yl)-(4-methoxy-phenyl)-methyl-amine] | –
– | 16 | COc1ccc(N(C)c2nc(C)nc3ncccc23)cc1 [Example 92, (4-Methoxy-phenyl)-(2-methyl-pyrido[2,3-d]pyrimidin-4-yl)-methyl-amine] | –
– | 65 | Cc1nc(N(C)c2ccc(O)cc2)c2ccccc2n1 [Example 93, (4-Hydroxy-phenyl)-(2-methyl-quinazolin-4-yl)-methyl-amine] | –
> 10000 | – | CCOc1ccc(Nc2nc(Cl)nc3ccccc23)cc1 [Example 94, (2-Chloro-quinazolin-4-yl)-(4-ethoxy-phenyl)-amine] | –
– | > 10000 | COc1ccc(Nc2nc(C)nc3ccccc23)cn1 [Example 95, (2-Methyl-quinazolin-4-yl)-(6-methoxy-pyridin-3-yl)-amine] | –
– | > 10000 | COc1ccc(Nc2nc(C)nc3ccccc23)c(F)c1 [Example 96, (2-Fluoro-4-methoxy-phenyl)-(2-methyl-quinazolin-4-yl)-amine] | –
5 | – | CCOc1ccc(N(C)c2nc(Cl)nc3ccccc23)cc1 [Example 97, (2-Chloro-quinazolin-4-yl)-(4-ethoxy-phenyl)-methylamine] | –
– | 4 | COc1ccc(N(C)c2nc(C)nc3ccccc23)c(F)c1 [Example 99, (2-Fluoro-4-methoxy-phenyl)-(2-methyl-quinazolin-4-yl)-methyl-amine] | –
– | 474 | Cc1nc(N(C)c2ccc([N+](=O)[O-])cc2)c2ccccc2n1 [Example 100, (2-Methyl-quinazolin-4-yl)-(4-nitro-phenyl)-methyl-amine] | –
– | 175 | Cc1nc(N(C)c2ccc(N)cc2)c2ccccc2n1 [Example 101, (4-Amino-phenyl)-(2-methyl-quinazolin-4-yl)-methyl-amine] | –
16 | 5 | Cc1nc(N(C)c2ccc(N=[N+]=[N-])cc2)c2ccccc2n1 [Example 102, (4-Azido-phenyl)-(2-methyl-quinazolin-4-yl)-methyl-amine] | –
– | 552 | Cc1nc(N(C)c2c(Br)cc(N)cc2Br)c2ccccc2n1 [Example 103, (4-Amino-2,6-dibromo-phenyl)-(2-methyl-quinazolin-4-yl)-methyl-amine] | –
– | 134 | Cc1nc(N(C)c2ccc(N)cc2Br)c2ccccc2n1 [Example 104, (4-Amino-2-bromo-phenyl)-(2-methyl-quinazolin-4-yl)-methyl-amine] | –
– | 2 | Cc1nc(N(C)c2ccc(N(C)C)cc2)c2ccccc2n1 [Example 105, (4-Dimethylamino-phenyl)-(2-methyl-quinazolin-4-yl)-methyl-amine] | –
– | > 10000 | CCOc1ccc(Nc2nc(C)nc3ccccc23)cc1 [Example 106, (4-Ethoxy-phenyl)-(2-methyl-quinazolin-4-yl)-amine] | –
– | 5 | CCOc1ccc(N(C)c2nc(C)nc3ccccc23)cc1 [Example 107, (4-Ethoxy-phenyl)-(2-methyl-quinazolin-4-yl)-methyl-amine] | –
– | – | [2H]c1c([2H])c(N(C)c2nc(C)nc3ccccc23)c([2H])c([2H])c1OC [Example 108, (4-Methoxy-phenyl-2,3,5,6-d4)-(2-methyl-quinazolin-4-yl)-methyl-amine] | 1
– | 274 | COc1ccc(N(C)c2nc(C)nc3ccc([N+](=O)[O-])cc23)cc1 [Example 109, (4-Methoxy-phenyl)-(2-methyl-6-nitro-quinazolin-4-yl)-methyl-amine] | –
– | 7 | COc1ccc(N(C)c2nc(C)nc3ccc(N)cc23)cc1 [Example 110, (6-Amino-2-methyl-quinazolin-4-yl)-(4-methoxy-phenyl)-methyl-amine] | –
– | 32 | COc1ccc(N(C)c2nc(C)nc3ccc(N=[N+]=[N-])cc23)cc1 [Example 111, (6-Azido-2-methyl-quinazolin-4-yl)-(4-methoxy-phenyl)-methyl-amine] | –
– | – | COc1ccc(N(C)c2nc(C)nc3cc([N+](=O)[O-])ccc23)cc1 [Example 112, (4-Methoxy-phenyl)-methyl-(2-methyl-7-nitro-quinazolin-4-yl)-amine] | > 10000
– | 735 | COc1ccc(N(C)c2nc(C)nc3cc(N)ccc23)cc1 [Example 113, (7-Amino-2-methyl-quinazolin-4-yl)-(4-methoxy-phenyl)-methyl-amine] | –
– | 130 | COc1ccc(N(C)c2nc(C)nc3cc(N=[N+]=[N-])ccc23)cc1 [Example 114, (7-Azido-2-methyl-quinazolin-4-yl)-(4-methoxy-phenyl)-methyl-amine] | –
– | > 10000 | COc1c(Br)cc(N(C)c2nc(C)nc3ccc([N+](=O)[O-])cc23)cc1Br [Example 115, (3,5-Dibromo-4-methoxy-phenyl)-(2-methyl-6-nitro-quinazolin-4-yl)-methyl-amine] | –

From patent US20130029942A1, “COMPOUNDS AND THERAPEUTICAL USES THEREOF” (Myrexis, Inc., priority 2003, published 2013)
